Consider 17 compounds from patent publication US11472769B2, “SSAO inhibitors and use thereof” (Eccogene (Shanghai) Co., Ltd., priority 2019, dated 2022).

As usually defined, the IC50 is the midpoint of a concentration-inhibition curve.

Data set [1] is described as follows: Brain Kpuu assay (BBB assay and protein binding assay). It counts as in vivo. The following applies: ICR mice, 1 mg/kg IV, plasma and brain collected at 5 minutes after dosing; for Kp uu at 5 min: mouse, read-out: Kpuu (mouse, t = 5 min). Here is the method: For example, Brain Kpuu assay composed of Blood-Brain-Barrier (BBB) assay and protein binding assay, can be utilized. The protein binding assay comprises equilibrium dialysis against brain lysate and plasma to calculate fu(brain) and fu(plasma), respectively. The BBB assay can be conducted in experimental animals at 1 mg/kg IV dosage. After dosing with the compounds of the present application, plasma and brain samples can be collected to analyze compound concentration (Cplasma and Cbrain). The Kpuu value of the tested compounds can be calculated by the equation: […]
Brain Kpuu assay is composed of Blood-Brain-Barrier (BBB) assay and protein binding assay, which are conducted in ICR mice. Protein binding assays were performed in 96-well plates, using equilibrium dialysis against brain lysate and plasma to calculate fu(brain) and fu(plasma), respectively. BBB assays were conducted in mice at 1 mg/kg IV dosage. Plasma and brain samples were collected at 5 minutes after dosing to analyze compounds concentration (Cplasma and Cbrain). The Kpuu value of the tested compounds was calculated by the equation: […]

The next data set has as its target recombinant hMAO-A (Homo sapiens (Human), UniProt P21397). Kind of data set: MAO-A activity assay (MAO-Glo assay kit). The data set is classed as biochemical. The following applies: 40 μM substrate, 30 mins pre-incubation. Put shortly: (§1)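 Substrate was 4 μM in MAO-B buffer for hMAO-B and 40 μM in MAO-A buffer for hSSAO and hMAO-A. Each enzyme first saw compound (0.1% DMSO vehicle) for 30 min at room temperature.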

Another data set deals with recombinant hMAO-B (Homo sapiens (Human), UniProt P27338). Kind of data set: MAO-B activity assay (MAO-Glo assay kit). The data set is classed as biochemical. The note with it: 4 μM substrate, 30 mins pre-incubation. Put shortly: as §1
The target of a further data set is recombinant hSSAO (Homo sapiens (Human), UniProt Q16853). Kind of data set: SSAO Activity Assay (MAO-Glo assay kit). The data set is classed as biochemical. The note with it: 40 μM substrate, 30 mins pre-incubation. The method, boiled down: as §1

SMILES strings stand for the structures. Where only a bound is given, the exact number is not on record here.

Chain of recombinant hMAO-B (P27338 whole entry): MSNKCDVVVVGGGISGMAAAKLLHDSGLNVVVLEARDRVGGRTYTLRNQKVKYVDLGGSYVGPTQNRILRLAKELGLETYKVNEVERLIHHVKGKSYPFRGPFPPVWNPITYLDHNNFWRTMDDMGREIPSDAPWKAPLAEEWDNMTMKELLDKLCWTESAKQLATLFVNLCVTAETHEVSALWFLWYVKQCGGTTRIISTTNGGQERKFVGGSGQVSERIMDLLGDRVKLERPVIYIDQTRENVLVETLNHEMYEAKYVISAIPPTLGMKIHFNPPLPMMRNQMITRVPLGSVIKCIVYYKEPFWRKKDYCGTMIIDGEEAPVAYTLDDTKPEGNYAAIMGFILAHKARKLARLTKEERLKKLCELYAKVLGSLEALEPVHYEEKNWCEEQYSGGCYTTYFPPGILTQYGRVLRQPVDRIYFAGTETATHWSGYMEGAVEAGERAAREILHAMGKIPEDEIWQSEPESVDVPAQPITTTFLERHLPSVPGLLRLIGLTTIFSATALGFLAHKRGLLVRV
Chain of recombinant hMAO-A (P21397 whole entry): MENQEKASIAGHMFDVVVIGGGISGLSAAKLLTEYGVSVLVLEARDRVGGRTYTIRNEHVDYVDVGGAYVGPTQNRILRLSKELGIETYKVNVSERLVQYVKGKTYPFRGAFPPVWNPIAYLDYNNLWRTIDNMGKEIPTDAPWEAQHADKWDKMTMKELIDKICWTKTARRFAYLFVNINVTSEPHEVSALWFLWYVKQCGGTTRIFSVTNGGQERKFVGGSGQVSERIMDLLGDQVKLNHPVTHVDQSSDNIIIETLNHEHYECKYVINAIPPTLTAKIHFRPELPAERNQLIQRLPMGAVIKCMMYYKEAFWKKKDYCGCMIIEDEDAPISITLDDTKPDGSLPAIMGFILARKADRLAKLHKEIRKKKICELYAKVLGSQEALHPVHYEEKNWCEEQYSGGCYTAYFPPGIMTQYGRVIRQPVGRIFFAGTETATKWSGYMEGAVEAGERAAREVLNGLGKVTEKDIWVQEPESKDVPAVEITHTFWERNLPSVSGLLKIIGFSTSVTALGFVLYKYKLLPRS
Chain of recombinant hSSAO (Q16853 whole entry): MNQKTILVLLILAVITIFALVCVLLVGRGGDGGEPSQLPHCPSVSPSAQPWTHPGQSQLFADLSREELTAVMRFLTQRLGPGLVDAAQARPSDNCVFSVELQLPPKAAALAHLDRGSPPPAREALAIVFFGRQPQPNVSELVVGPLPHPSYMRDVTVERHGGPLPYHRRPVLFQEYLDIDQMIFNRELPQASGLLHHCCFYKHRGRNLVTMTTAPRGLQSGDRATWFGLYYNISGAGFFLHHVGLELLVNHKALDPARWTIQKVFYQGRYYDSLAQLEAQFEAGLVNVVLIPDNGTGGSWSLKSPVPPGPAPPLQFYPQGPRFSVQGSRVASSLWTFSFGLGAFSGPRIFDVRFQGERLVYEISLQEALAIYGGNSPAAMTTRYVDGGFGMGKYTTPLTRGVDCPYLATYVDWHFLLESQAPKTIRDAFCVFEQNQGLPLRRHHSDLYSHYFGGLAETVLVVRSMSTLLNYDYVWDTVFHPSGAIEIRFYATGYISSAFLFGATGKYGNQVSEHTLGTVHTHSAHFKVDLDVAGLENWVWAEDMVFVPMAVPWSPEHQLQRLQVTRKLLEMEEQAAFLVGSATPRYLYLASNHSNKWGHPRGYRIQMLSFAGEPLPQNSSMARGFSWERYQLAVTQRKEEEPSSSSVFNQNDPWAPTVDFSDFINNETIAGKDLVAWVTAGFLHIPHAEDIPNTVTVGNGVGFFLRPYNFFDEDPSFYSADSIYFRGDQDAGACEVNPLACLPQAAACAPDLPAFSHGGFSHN

Regarding `CC(C)(C)NC(=O)c1ccc(OC/C(=C/F)CN)cc1.Cl` [BI 1467335 (PXS-4728A), reference compound], the “Kpuu (mouse, t = 5 min)” value in data set [1] was found to be 0.23.
For `NC/C(=C\F)COc1ccc(S(=O)(=O)CC2CCN(C(=O)C3CC3)CC2)cc1` [Compound 44, (E)-(4-(((4-((2-(aminomethyl)-3-fluoroallyl)oxy)phenyl)sulfonyl)methyl)piperidin-1-yl)(cyclopropyl)methanone], the values for the IC50 at recombinant hMAO-A, on recombinant hMAO-B and at recombinant hSSAO were greater than 30 µM, greater than 30 µM and 0.02 to 0.1 µM, respectively. In addition, the Kp uu at 5 min in data set [1] was 0.025.
Take `NC/C(=C\F)COc1ccc(S(=O)(=O)CC23CCC(C(=O)NCC(F)(F)F)(CC2)CC3)cc1` [Compound 65, (E)-4-(((4-((2-(aminomethyl)-3-fluoroallyl)oxy)phenyl)sulfonyl)methyl)-N-(2,2,2-trifluoroethyl)bicyclo[2.2.2] octane-1-carboxamide]: the half-inhibitory concentration (IC50) was greater than 30 µM at recombinant hMAO-A, 10 to 30 µM on recombinant hMAO-B and less than 0.02 µM on recombinant hSSAO. For the same compound, in data set [1], the Kp uu at 5 min is 0.018.
Take `CC(C)(C)NC(=O)C12CCC(CS(=O)(=O)c3ccc(OC/C(=C/F)CN)cc3)(CC1)CC2` [Compound 70, (E)-4-(((4-((2-(aminomethyl)-3-fluoroallyl)oxy)phenyl)sulfonyl)methyl)-N-(tert-butyl)bicyclo[2.2.2]octane-1-carboxamide]: the half-maximal inhibitory concentration (IC50) at recombinant hMAO-A is greater than 30 µM; at recombinant hMAO-B, 10 to 30 µM; on recombinant hSSAO, 0.02 to 0.1 µM. Further, in data set [1], the Kp uu at 5 min is 0.01.
For `CC1(C(=O)NC23CCC(CS(=O)(=O)c4ccc(OC/C(=C/F)CN)cc4)(CC2)CC3)CC1` [Compound 91, (E)-N-(4-(((4-((2-(aminomethyl)-3-fluoroallyl)oxy)phenyl)sulfonyl)methyl)bicyclo[2.2.2]octan-1-yl)-1-methylcyclopropane-1-carboxamide] the same measures were greater than 30 µM, 10 to 30 µM, less than 0.02 µM and 0.077.
As for `NC/C(=C\F)COc1ccc(S(=O)(=O)CN2CCC3(CCCC3)C2=O)c(F)c1` [Compound 128, (E)-2-(((4-((2-(aminomethyl)-3-fluoroallyl)oxy)-2-fluorophenyl)sulfonyl)methyl)-2-azaspiro[4.4]nonan-1-one], the IC50 is greater than 30 µM on recombinant hMAO-A, greater than 30 µM on recombinant hMAO-B and 0.1 to 0.5 µM on recombinant hSSAO.
As to `NC/C(=C\F)COc1ccc(S(=O)(=O)CN2CCCCC2=O)cc1` [Compound 129, (E)-1-(((4-((2-(aminomethyl)-3-fluoroallyl)oxy)phenyl)sulfonyl)methyl)piperidin-2-one], the IC50 at recombinant hMAO-A is greater than 30 µM; at recombinant hMAO-B, 10 to 30 µM; on recombinant hSSAO, 0.02 to 0.1 µM.
For `NC/C(=C\F)COc1ccc(S(=O)(=O)CN2CCOCC2=O)cc1` [Compound 130, (E)-4-(((4-((2-(aminomethyl)-3-fluoroallyl)oxy)phenyl)sulfonyl)methyl)morpholin-3-one] the same measures were greater than 30 µM, greater than 30 µM and 0.02 to 0.1 µM.
In the same order, the values of `NC/C(=C\F)COc1ccc(S(=O)(=O)CN2CCOCC2=O)c(F)c1` [Compound 131, (E)-4-(((4-((2-(aminomethyl)-3-fluoroallyl)oxy)-2-fluorophenyl)sulfonyl)methyl) morpholin-3-one] are greater than 30 µM, greater than 30 µM and 0.02 to 0.1 µM.
Take `CC1(C)COCC(=O)N1CS(=O)(=O)c1ccc(OC/C(=C/F)CN)cc1` [Compound 132, (E)-4-(((4-((2-(aminomethyl)-3-fluoroallyl)oxy)phenyl)sulfonyl)methyl)-5,5-dimethylmorpholin-3-one]: the IC50 at recombinant hMAO-A was greater than 30 µM; on recombinant hMAO-B, less than 10 µM; on recombinant hSSAO, 0.02 to 0.1 µM.
As to `NC/C(=C/F)COc1ccc(S(=O)(=O)CC23CCC(C(=O)NC4CCC4)(CC2)CC3)cc1` [Compound 140, (Z)-4-(((4-((2-(aminomethyl)-3-fluoroallyl)oxy)phenyl)sulfonyl)methyl)-N-cyclobicyclo[2.2.2]octane-1-carboxamide], the values for the 50% inhibitory concentration (IC50) at recombinant hMAO-A, on recombinant hMAO-B and on recombinant hSSAO were greater than 30 µM, greater than 30 µM and less than 0.02 µM, respectively.
On to `CC(C)(C)NC(=O)C12CCC(CS(=O)(=O)c3ccc(OC/C(=C\F)CN)cc3)(CC1)CC2` [Compound 141, (Z)-4-(((4-((2-(aminomethyl)-3-fluoroallyl)oxy)phenyl)sulfonyl)methyl)-N-(tert-butyl)bicyclo[2.2.2]octane-1-carboxamide], for which the half-maximal inhibitory concentration (IC50) at recombinant hMAO-A was greater than 30 µM; at recombinant hMAO-B, greater than 30 µM; at recombinant hSSAO, 0.02 to 0.1 µM.
`CC(C)(C)C(=O)NC12CCC(CS(=O)(=O)c3ccc(OC/C(=C\F)CN)cc3)(CC1)CC2` [Compound 142, (Z)-N-(4-(((4-((2-(aminomethyl)-3-fluoroallyl)oxy)phenyl)sulfonyl)methyl)bicyclo[2.2.2]octan-1-yl)pivalamide]: the half-inhibitory concentration (IC50) is greater than 30 µM on recombinant hMAO-A, greater than 30 µM at recombinant hMAO-B and less than 0.02 µM on recombinant hSSAO.
Consider `CC(C)NC(=O)C1CCC(CS(=O)(=O)c2ccc(OC/C(=C/F)CN)cc2)CC1` (centres unmarked) [Compound 144, (E)-4-(((4-((2-(aminomethyl)-3-fluoroallyl)oxy)phenyl)sulfonyl)methyl)-N-isopropylcyclohexane-1-carboxamide], for which the IC50 at recombinant hMAO-A is greater than 30 µM; on recombinant hMAO-B, less than 10 µM; at recombinant hSSAO, 0.02 to 0.1 µM.
Consider `N#CC1(CS(=O)(=O)c2ccc(OC/C(=C/F)CN)cc2F)CCOCC1` [compound 13, (E)-4-(((4-((2-(aminomethyl)-3-fluoroallyl)oxy)-2-fluorophenyl)sulfonyl)methyl) tetrahydro-2H-pyran-4-carbonitrile], for which the IC50 on recombinant hMAO-A fell in the range of 10 to 30 µM; at recombinant hMAO-B, 10 to 30 µM; at recombinant hSSAO it was 0.02 to 0.1 µM.
For `CC(C)C(=O)N1CCC(CS(=O)(=O)c2ccc(OC/C(=C/F)CN)cc2)CC1` [compound 37, (E)-1-(4-(((4-((2-(aminomethyl)-3-fluoroallyl)oxy)phenyl)sulfonyl)methyl)piperidin-1-yl)-2-methylpropan-1-one], the 50% inhibitory concentration (IC50) at recombinant hMAO-A was greater than 30 µM; on recombinant hMAO-B, greater than 30 µM; at recombinant hSSAO, less than 0.02 µM.
Regarding `CN(C)C(=O)C12CCC(CS(=O)(=O)c3ccc(OC/C(=C/F)CN)cc3)(CC1)CC2` [compound 62, (E)-4-(((4-((2-(aminomethyl)-3-fluoroallyl)oxy)phenyl)sulfonyl)methyl)-N,N-dimethylbicyclo[2.2.2]octane-1-carboxamide], in data set [1], the Kp uu at 5 min amounted to 0.034. The IC50 lay in the range of 10 to 30 µM at recombinant hMAO-B and 0.02 to 0.1 µM on recombinant hSSAO.
